Data as given in ChEMBL document CHEMBL5154873, “Selective degradation of PARP2 by PROTACs via recruiting DCAF16 for triple-negative breast cancer” (Eur J Med Chem, 2022).
Calls of active or inactive are those of the source. The rule behind the calls is not given here.

How the values were obtained:
[1] = tested on: MDA-MB-436; assay: Antiproliferative activity against human BRCA1 -/- MDA-MB-436 cells assessed as reduction in cell viability incubated for 5 to 10 days by MTT assay; format: functional, cell-based
[2] = tested on: CAPAN-1; assay: Antiproliferative activity against human BRCA2 -/- CAPAN-1 cells assessed as reduction in cell viability incubated for 5 to 10 days by MTT assay; format: functional, cell-based
[3] = tested on: MDA-MB-468; assay: Antiproliferative activity against human PTEN -/- MDA-MB-468 cells assessed as reduction in cell viability incubated for 5 to 10 days by MTT assay; format: functional, cell-based
[4] = tested on: MDA-MB-231; assay: Antiproliferative activity against wild type human MDA-MB-231 cells assessed as reduction in cell viability incubated for 5 to 10 days by MTT assay; format: functional, cell-based
[5] = molecular target: DDB1- and CUL4-associated factor 16/Poly [ADP-ribose] polymerase 2 (Homo sapiens, UniProt Q9UGN5+Q9NXF7); assay: Protac activity at DCAF16 E3 ligase/PARP2 in human MDA-MB-231 cells assessed as induction of PARP2 degradation at 1 uM measured after 24 hrs by Western blot analysis; format: cell-based
Chain of DDB1- and CUL4-associated factor 16/Poly [ADP-ribose] polymerase 2 (Q9NXF7 whole entry, looked up): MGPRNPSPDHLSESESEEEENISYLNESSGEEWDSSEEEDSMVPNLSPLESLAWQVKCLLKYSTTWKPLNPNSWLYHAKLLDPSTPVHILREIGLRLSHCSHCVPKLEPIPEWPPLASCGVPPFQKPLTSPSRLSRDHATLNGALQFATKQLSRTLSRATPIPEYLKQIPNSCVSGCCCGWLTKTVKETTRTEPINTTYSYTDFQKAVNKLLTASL
Chain of DDB1- and CUL4-associated factor 16/Poly [ADP-ribose] polymerase 2 (Q9UGN5 whole entry, looked up): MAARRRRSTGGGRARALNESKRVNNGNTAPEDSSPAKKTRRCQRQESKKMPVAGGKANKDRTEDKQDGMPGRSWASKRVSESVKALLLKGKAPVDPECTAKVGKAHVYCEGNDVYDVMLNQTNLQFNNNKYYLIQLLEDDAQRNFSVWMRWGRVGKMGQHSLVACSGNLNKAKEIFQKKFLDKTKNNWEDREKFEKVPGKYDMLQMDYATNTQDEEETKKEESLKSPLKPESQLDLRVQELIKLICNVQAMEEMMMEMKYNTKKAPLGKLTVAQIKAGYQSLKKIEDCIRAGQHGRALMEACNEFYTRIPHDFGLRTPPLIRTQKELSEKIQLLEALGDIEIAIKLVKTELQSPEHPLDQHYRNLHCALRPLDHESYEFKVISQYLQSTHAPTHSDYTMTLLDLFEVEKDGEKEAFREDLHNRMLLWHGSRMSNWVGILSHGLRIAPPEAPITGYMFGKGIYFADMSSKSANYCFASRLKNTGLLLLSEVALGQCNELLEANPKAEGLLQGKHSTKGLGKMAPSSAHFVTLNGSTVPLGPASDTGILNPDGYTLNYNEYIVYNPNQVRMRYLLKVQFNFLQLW

[6] = tested on: MDA-MB-436; assay: Induction of cell cycle arrest in human (BRAC1-/-) MDA-MB-436 cells assessed as accumulation at G2/M phase measured after 48 hrs by flow cytometry analysis; format: functional, cell-based; settings: dose 0.312-2.5 µM, DDE = dose-dependent effect
[7] = tested on: MDA-MB-231; assay: Induction of cell cycle arrest in human MDA-MB-231 cells assessed as accumulation at G2/M phase measured after 24 hrs by flow cytometry analysis; format: functional, cell-based; settings: dose 0.156-1.25 µM, DDE = dose-dependent effect
[8] = tested on: MDA-MB-231; assay: In vivo antitumor activity against human MDA-MB-231 cells xenografted BALB/c mouse assessed as tumor growth inhibition at 100 mg/kg, IG measured after 21 days; format: functional; settings: MDA-MB-231, po, 504 h, time 21 day, read-out: TGI

Row | Structure (SMILES) | IC50 [1] | IC50 [2] | IC50 [3] | IC50 [4] | Activity [5] | Activity [6] | Activity [7] | inhibition in vivo at 100 mg/kg [8]
1 | O=C(COc1ccc2c(c1)CCCN2C(=O)CCl)NCCOCCOCCOCCn1cc(CCCCC(=O)N2CCN(C(=O)c3cc(Cc4n[nH]c(=O)c5ccccc45)ccc3F)CC2)nn1 | 630 nM | 2230 nM | 8170 nM | 6680 nM |  |  |  | 
2 | O=C(COc1ccc2c(c1)CCCN2C(=O)CCl)NCCCNC(=O)CN1CCN(C(=O)c2cc(Cc3n[nH]c(=O)c4ccccc34)ccc2F)CC1 | 2700 nM | 3370 nM | > 20000 nM | > 20000 nM |  |  |  | 
3 | O=C(COc1ccc2c(c1)CCCN2C(=O)CCl)NCCCCCCNC(=O)CN1CCN(C(=O)c2cc(Cc3n[nH]c(=O)c4ccccc34)ccc2F)CC1 | 1960 nM | 4360 nM | 11200 nM | 12300 nM |  |  |  | 
4 | O=C(COc1ccc2c(c1)CCCN2C(=O)CCl)NCCCCCC(=O)N1CCN(C(=O)c2cc(Cc3n[nH]c(=O)c4ccccc34)ccc2F)CC1 | 240 nM | 390 nM | 4680 nM | 5310 nM |  |  |  | 
5 | O=C(CCC(=O)N1CCN(C(=O)c2cc(Cc3n[nH]c(=O)c4ccccc34)ccc2F)CC1)NCCNC(=O)COc1ccc2c(c1)CCCN2C(=O)CCl | 1480 nM | 3160 nM | 6180 nM | 8440 nM | Active |  |  | 
6 | O=C(COc1ccc2c(c1)CCCN2C(=O)CCl)NCCCCCCCC(=O)N1CCN(C(=O)c2cc(Cc3n[nH]c(=O)c4ccccc34)ccc2F)CC1 | 110 nM | 120 nM | 2110 nM | 4230 nM | Active |  |  | 
7 | O=C(COc1ccc2c(c1)CCCN2C(=O)CCl)NCCCCNC(=O)CN1CCN(C(=O)c2cc(Cc3n[nH]c(=O)c4ccccc34)ccc2F)CC1 | 1840 nM | 2690 nM | 9100 nM | 11600 nM |  |  |  | 
8 | O=C(COc1ccc2c(c1)CCCN2C(=O)CCl)NCCCCCCCCC(=O)N1CCN(C(=O)c2cc(Cc3n[nH]c(=O)c4ccccc34)ccc2F)CC1 | 77 nM | 150 nM | 1700 nM | 2690 nM | Active |  |  | 
9 | O=C(CCC(=O)N1CCN(C(=O)c2cc(Cc3n[nH]c(=O)c4ccccc34)ccc2F)CC1)NCCOCCOCCNC(=O)COc1ccc2c(c1)CCCN2C(=O)CCl | 1190 nM | 1280 nM | 9740 nM | 12900 nM |  |  |  | 
10 | O=C(CCC(=O)N1CCN(C(=O)c2cc(Cc3n[nH]c(=O)c4ccccc34)ccc2F)CC1)NCCOCCOCCOCCNC(=O)COc1ccc2c(c1)CCCN2C(=O)CCl | 1750 nM | 1600 nM | 6370 nM | 9710 nM |  |  |  | 
11 | O=C(COc1ccc2c(c1)CCCN2C(=O)CCl)NCCOCCNC(=O)CN1CCN(C(=O)c2cc(Cc3n[nH]c(=O)c4ccccc34)ccc2F)CC1 | 2890 nM | 5280 nM | > 20000 nM | > 20000 nM |  |  |  | 
12 | O=C(CCC(=O)N1CCN(C(=O)c2cc(Cc3n[nH]c(=O)c4ccccc34)ccc2F)CC1)NCCCNC(=O)COc1ccc2c(c1)CCCN2C(=O)CCl | 1190 nM | 1870 nM | 5900 nM | 7190 nM | Active |  |  | 
13 | O=C(COc1ccc2c(c1)CCCN2C(=O)CCl)NCC(=O)N1CCN(C(=O)c2cc(Cc3n[nH]c(=O)c4ccccc34)ccc2F)CC1 | 55 nM | 610 nM | 5850 nM | 3510 nM |  |  |  | 
14 | O=C(COc1ccc2c(c1)CCCN2C(=O)CCl)NCCNC(=O)CN1CCN(C(=O)c2cc(Cc3n[nH]c(=O)c4ccccc34)ccc2F)CC1 | 1690 nM | 3300 nM | 13400 nM | > 20000 nM |  |  |  | 
15 | O=C(CCC(=O)N1CCN(C(=O)c2cc(Cc3n[nH]c(=O)c4ccccc34)ccc2F)CC1)NCCCCCCCNC(=O)COc1ccc2c(c1)CCCN2C(=O)CCl | 660 nM | 1690 nM | 5700 nM | 6210 nM | Active |  |  | 
16 | O=C(CCC(=O)N1CCN(C(=O)c2cc(Cc3n[nH]c(=O)c4ccccc34)ccc2F)CC1)NCCCCCCNC(=O)COc1ccc2c(c1)CCCN2C(=O)CCl | 350 nM | 990 nM | 3910 nM | 5590 nM | Active |  |  | 
17 | O=C(COc1ccc2c(c1)CCCN2C(=O)CCl)NCCCCCCCCCCC(=O)N1CCN(C(=O)c2cc(Cc3n[nH]c(=O)c4ccccc34)ccc2F)CC1 | 25 nM | 68 nM | 720 nM | 810 nM | Active |  |  | 
18 | O=C(c1cc(Cc2n[nH]c(=O)c3ccccc23)ccc1F)N1CCN(C(=O)C2CC2)CC1 [OLAPARIB] |  |  |  |  |  | Dde | Dde | 57.8%
19 | O=C(COc1ccc2c(c1)CCCN2C(=O)CCl)NCCC(=O)N1CCN(C(=O)c2cc(Cc3n[nH]c(=O)c4ccccc34)ccc2F)CC1 | 660 nM | 900 nM | > 20000 nM | > 20000 nM |  |  |  | 
20 | O=C(CCC(=O)N1CCN(C(=O)c2cc(Cc3n[nH]c(=O)c4ccccc34)ccc2F)CC1)NCCOCCOCCOCCOCCNC(=O)COc1ccc2c(c1)CCCN2C(=O)CCl | 780 nM | 1950 nM | 7430 nM | 11000 nM |  |  |  | 
21 | O=C(CCC(=O)N1CCN(C(=O)c2cc(Cc3n[nH]c(=O)c4ccccc34)ccc2F)CC1)NCCCCCNC(=O)COc1ccc2c(c1)CCCN2C(=O)CCl | 290 nM | 890 nM | 1220 nM | 2420 nM | Active |  |  | 
22 | O=C(COc1ccc2c(c1)CCCN2C(=O)CCl)NCCOCCOCCOCCNC(=O)CN1CCN(C(=O)c2cc(Cc3n[nH]c(=O)c4ccccc34)ccc2F)CC1 | 1740 nM | 3490 nM | > 20000 nM | > 20000 nM |  |  |  | 
23 | O=C(COc1ccc2c(c1)CCCN2C(=O)CCl)NCCOCCOCCOCCOCCNC(=O)CN1CCN(C(=O)c2cc(Cc3n[nH]c(=O)c4ccccc34)ccc2F)CC1 | 5020 nM | 7040 nM | > 20000 nM | > 20000 nM |  |  |  | 
24 | O=C(COc1ccc2c(c1)CCCN2C(=O)CCl)NCCCCC(=O)N1CCN(C(=O)c2cc(Cc3n[nH]c(=O)c4ccccc34)ccc2F)CC1 | 570 nM | 790 nM | 7240 nM | > 20000 nM |  |  |  | 
25 | NC(=O)n1nc(Cc2ccc(F)c(C(=O)N3CCN(C(=O)CCC(=O)NCCCCNC(=O)COc4ccc5c(c4)CCCN5C(=O)CCl)CC3)c2)c2ccccc2c1=O | 820 nM | 1960 nM | 7450 nM | 9740 nM | Active |  |  | 
26 | O=C(COc1ccc2c(c1)CCCN2C(=O)CCl)NCCCC(=O)N1CCN(C(=O)c2cc(Cc3n[nH]c(=O)c4ccccc34)ccc2F)CC1 | 490 nM | 840 nM | > 20000 nM | > 20000 nM |  |  |  | 
27 | O=C(COc1ccc2c(c1)CCCN2C(=O)CCl)NCCOCCOCCNC(=O)CN1CCN(C(=O)c2cc(Cc3n[nH]c(=O)c4ccccc34)ccc2F)CC1 | 3460 nM | 7630 nM | > 20000 nM | > 20000 nM |  |  |  | 
28 | CCC(=O)N1CCCc2cc(OCC(=O)NCCCCCCCCCCC(=O)N3CCN(C(=O)c4cc(Cc5n[nH]c(=O)c6ccccc56)ccc4F)CC3)ccc21 | 43 nM | 87 nM | 2230 nM | 3100 nM |  |  |  | 
29 | O=C(CCC(=O)N1CCN(C(=O)c2cc(Cc3n[nH]c(=O)c4ccccc34)ccc2F)CC1)NCCOCCNC(=O)COc1ccc2c(c1)CCCN2C(=O)CCl | 1480 nM | 2830 nM | 6010 nM | 8270 nM |  |  |  | 
